# Test results taken from ChEMBL document CHEMBL4507267 (2021).
# What was measured:
# [1] = molecular target: Tyrosine-protein kinase Lyn (Homo sapiens) (UniProt P07948); conditions: Compound concentration 1000.0 nM
# [2] = system: Tyrosine-protein kinase ABL1 (Homo sapiens), P00519 [F317L]; conditions: Compound concentration 1000.0 nM
# [3] = molecular target: Dual specificity tyrosine-phosphorylation-regulated kinase 1A (Homo sapiens) (UniProt Q13627); conditions: Compound concentration 1000.0 nM
# [4] = molecular target: D(1A) dopamine receptor (Homo sapiens) (UniProt P21728); conditions: Compound concentration 10.0 uM
# [5] = molecular target: Testis-specific serine/threonine-protein kinase 3 (Homo sapiens) (UniProt Q96PN8); conditions: Compound concentration 1000.0 nM
# [6] = molecular target: Citron Rho-interacting kinase (Homo sapiens) (UniProt O14578); conditions: Compound concentration 1000.0 nM
# [7] = molecular target: Serine/threonine-protein kinase WNK1 (Homo sapiens) (UniProt Q9H4A3); conditions: Compound concentration 1000.0 nM
# [8] = molecular target: Ephrin type-B receptor 2 (Homo sapiens) (UniProt P29323); conditions: Compound concentration 1000.0 nM
# [9] = molecular target: Sigma intracellular receptor 2 (Homo sapiens) (UniProt Q5BJF2); conditions: Compound concentration 10.0 uM
# [10] = molecular target: Ephrin type-A receptor 5 (Homo sapiens) (UniProt P54756); conditions: Compound concentration 1000.0 nM
# [11] = molecular target: T1, Histamine H1 receptor (Homo sapiens, UniProt P35367); conditions: Compound concentration 10.0 uM
# [12] = molecular target: STE20/SPS1-related proline-alanine-rich protein kinase (Homo sapiens) (UniProt Q9UEW8); conditions: Compound concentration 1000.0 nM
# [13] = molecular target: Sodium-dependent noradrenaline transporter (Homo sapiens) (UniProt P23975); conditions: Compound concentration 10.0 uM
# [14] = molecular target: Delta-type opioid receptor (Homo sapiens) (UniProt P41143); conditions: Compound concentration 10.0 uM
# [15] = molecular target: Solute carrier family 2, facilitated glucose transporter member 2 (Homo sapiens, UniProt P11168); experiment: Cell-based assay with CellTiter-Glo readout for ATP production with SLC2A2
# [16] = molecular target: Ephrin type-A receptor 4 (Homo sapiens) (UniProt P54764); conditions: Compound concentration 1000.0 nM
# [17] = molecular target: Calcium-dependent protein kinase 1 (Plasmodium falciparum) (UniProt P62344); conditions: Compound concentration 1000.0 nM
# [18] = molecular target: 5-hydroxytryptamine receptor 7 (Homo sapiens) (UniProt P34969); conditions: Compound concentration 10.0 uM
# [19] = molecular target: T1, Histamine H1 receptor; experiment: GPCRScan assay: inhibition of H1; parameters: radioligand conc. used [nm] 0.6 – 2.0, parental cells stable HEK
# [20] = species: Rattus norvegicus; conditions: Compound concentration 10.0 uM
# [21] = molecular target: Solute carrier family 2, facilitated glucose transporter member 4 (Homo sapiens, UniProt P14672); experiment: Cell-based assay with CellTiter-Glo readout for ATP production with SLC2A4
# [22] = molecular target: Histamine H2 receptor (Homo sapiens, UniProt P25021); experiment: GPCRScan assay: inhibition of H2; parameters: radioligand conc. used [nm] 0.02 – 0.05, parental cells Stable HEK
# Sequence of Ephrin type-A receptor 5 (Homo sapiens) (P54756 whole entry): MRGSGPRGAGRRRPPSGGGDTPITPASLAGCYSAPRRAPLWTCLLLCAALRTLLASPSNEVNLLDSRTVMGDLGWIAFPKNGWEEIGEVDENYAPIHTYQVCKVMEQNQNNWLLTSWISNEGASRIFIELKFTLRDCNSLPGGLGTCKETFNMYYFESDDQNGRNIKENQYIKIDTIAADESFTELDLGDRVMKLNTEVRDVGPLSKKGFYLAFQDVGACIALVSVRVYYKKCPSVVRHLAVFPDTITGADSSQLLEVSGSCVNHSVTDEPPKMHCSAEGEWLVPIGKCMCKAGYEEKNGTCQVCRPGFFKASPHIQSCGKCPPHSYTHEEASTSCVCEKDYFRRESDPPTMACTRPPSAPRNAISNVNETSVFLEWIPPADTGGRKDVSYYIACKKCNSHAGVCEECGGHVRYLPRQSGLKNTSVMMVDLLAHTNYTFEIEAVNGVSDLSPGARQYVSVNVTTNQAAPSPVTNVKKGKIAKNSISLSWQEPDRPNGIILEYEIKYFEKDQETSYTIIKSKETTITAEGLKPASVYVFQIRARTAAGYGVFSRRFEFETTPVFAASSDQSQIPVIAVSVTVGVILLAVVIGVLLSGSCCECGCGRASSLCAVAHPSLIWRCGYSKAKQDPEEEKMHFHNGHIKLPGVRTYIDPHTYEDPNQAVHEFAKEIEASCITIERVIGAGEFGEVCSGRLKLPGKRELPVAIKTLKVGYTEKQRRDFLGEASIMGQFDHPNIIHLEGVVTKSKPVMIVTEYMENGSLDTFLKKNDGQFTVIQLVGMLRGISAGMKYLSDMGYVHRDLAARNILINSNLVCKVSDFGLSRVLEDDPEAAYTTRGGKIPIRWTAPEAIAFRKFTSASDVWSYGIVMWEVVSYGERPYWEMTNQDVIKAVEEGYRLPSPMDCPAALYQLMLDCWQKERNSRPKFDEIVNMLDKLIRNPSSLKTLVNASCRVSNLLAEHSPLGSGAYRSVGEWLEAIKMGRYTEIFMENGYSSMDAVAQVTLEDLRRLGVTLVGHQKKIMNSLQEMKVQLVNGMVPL
# Sequence of Serine/threonine-protein kinase WNK1 (Homo sapiens) (Q9H4A3 whole entry, looked up): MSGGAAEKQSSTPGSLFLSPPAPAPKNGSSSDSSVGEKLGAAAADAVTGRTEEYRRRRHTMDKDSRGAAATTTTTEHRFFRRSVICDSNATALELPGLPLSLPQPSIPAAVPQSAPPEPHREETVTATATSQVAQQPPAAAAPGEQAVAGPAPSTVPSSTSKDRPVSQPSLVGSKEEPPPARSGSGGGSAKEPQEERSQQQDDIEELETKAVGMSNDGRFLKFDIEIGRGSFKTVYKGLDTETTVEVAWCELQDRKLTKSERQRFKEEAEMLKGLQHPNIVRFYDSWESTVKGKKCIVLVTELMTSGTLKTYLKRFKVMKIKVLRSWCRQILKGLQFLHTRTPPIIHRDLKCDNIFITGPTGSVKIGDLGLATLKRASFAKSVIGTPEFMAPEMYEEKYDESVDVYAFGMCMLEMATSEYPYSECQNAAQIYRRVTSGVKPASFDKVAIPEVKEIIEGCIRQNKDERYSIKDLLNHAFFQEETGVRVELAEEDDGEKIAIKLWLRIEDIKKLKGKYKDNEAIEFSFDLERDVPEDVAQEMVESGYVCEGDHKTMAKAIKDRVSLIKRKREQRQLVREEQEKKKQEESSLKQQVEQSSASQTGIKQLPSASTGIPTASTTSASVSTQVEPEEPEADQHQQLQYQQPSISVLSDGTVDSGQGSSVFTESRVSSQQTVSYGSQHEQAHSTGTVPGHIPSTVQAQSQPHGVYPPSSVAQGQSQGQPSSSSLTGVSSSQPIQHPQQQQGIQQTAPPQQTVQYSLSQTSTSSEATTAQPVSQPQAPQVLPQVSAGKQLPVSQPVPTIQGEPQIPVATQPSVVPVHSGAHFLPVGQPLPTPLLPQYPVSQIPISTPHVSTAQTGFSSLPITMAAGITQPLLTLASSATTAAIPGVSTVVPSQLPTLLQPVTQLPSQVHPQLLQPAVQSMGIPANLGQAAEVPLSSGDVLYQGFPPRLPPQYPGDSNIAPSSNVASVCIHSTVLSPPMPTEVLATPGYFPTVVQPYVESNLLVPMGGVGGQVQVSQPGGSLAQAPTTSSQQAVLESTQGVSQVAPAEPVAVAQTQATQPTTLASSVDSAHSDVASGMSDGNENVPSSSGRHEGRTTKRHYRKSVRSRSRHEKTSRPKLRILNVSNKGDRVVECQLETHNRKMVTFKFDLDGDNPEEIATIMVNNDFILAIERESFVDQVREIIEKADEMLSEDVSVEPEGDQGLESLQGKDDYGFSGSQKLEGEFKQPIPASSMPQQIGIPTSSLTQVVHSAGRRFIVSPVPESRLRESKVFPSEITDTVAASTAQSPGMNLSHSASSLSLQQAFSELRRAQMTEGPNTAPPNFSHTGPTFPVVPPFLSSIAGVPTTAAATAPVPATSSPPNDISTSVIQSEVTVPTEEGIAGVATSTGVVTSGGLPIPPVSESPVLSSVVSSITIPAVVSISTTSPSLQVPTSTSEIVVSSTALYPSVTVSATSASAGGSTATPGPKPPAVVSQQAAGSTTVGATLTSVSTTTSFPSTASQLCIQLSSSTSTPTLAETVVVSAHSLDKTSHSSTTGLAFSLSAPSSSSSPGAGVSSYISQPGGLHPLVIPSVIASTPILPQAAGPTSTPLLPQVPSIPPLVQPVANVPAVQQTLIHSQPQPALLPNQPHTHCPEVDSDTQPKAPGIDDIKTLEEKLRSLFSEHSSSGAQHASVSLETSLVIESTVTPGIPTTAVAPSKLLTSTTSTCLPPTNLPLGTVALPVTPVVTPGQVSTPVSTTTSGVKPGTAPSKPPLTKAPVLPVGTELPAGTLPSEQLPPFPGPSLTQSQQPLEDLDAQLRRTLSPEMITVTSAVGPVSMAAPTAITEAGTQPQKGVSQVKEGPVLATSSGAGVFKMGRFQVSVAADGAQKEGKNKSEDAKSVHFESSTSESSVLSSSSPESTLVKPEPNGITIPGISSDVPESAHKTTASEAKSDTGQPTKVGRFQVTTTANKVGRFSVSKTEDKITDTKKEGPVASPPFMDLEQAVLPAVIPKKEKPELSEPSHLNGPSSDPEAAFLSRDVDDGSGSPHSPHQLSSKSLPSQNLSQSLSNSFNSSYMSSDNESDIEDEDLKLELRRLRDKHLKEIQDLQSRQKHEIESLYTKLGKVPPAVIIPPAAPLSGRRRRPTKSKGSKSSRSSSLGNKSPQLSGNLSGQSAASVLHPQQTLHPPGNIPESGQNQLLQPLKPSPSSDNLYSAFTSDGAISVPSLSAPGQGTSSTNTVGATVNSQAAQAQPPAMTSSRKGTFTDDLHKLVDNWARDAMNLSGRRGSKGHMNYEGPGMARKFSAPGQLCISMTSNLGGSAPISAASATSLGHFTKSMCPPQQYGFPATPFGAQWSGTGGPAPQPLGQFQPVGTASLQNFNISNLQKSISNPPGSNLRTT
# Sequence of Tyrosine-protein kinase ABL1 (Homo sapiens), P00519 [F317L] (P00519 whole entry F317L): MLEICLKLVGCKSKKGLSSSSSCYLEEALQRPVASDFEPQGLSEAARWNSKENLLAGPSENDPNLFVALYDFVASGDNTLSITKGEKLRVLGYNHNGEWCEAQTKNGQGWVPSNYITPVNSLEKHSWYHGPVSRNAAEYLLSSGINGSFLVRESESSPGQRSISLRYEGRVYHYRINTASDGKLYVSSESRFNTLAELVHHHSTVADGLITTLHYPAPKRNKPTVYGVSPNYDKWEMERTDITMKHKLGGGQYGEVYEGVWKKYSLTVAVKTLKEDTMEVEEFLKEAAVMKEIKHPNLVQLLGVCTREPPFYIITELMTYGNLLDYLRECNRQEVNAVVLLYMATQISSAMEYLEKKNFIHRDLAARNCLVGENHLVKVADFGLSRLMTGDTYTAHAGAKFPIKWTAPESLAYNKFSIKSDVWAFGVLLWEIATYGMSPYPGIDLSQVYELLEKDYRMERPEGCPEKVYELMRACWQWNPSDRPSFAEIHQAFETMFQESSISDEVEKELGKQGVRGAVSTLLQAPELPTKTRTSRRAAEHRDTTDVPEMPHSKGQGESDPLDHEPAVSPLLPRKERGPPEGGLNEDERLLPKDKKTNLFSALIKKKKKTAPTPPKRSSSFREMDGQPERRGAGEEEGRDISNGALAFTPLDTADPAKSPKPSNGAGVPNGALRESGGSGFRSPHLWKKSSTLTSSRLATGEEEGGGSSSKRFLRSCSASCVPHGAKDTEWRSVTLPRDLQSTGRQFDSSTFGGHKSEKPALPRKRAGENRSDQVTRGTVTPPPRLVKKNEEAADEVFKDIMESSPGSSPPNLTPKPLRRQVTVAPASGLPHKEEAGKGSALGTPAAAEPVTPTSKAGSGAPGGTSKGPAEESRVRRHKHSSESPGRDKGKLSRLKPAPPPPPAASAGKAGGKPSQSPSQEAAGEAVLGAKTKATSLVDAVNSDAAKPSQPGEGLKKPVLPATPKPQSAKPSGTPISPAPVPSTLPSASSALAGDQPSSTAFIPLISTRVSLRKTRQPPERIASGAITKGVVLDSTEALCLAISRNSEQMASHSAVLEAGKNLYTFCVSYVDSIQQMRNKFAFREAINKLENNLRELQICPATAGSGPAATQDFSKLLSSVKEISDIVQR
# Sequence of Tyrosine-protein kinase Lyn (Homo sapiens) (P07948 2-512 limits assumed): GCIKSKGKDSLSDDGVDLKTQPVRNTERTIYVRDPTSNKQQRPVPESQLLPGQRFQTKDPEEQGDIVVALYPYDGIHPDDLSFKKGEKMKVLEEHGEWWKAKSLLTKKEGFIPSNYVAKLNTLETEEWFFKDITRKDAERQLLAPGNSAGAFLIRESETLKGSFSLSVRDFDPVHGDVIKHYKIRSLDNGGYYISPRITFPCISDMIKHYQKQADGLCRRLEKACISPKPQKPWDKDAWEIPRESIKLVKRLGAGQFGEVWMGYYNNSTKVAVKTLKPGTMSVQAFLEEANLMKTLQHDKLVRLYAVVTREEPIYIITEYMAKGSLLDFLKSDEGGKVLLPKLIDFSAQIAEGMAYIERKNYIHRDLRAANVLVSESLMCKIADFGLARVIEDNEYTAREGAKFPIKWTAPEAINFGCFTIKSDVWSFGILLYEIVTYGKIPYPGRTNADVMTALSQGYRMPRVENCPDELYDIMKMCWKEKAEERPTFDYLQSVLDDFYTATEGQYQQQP
Compound,residual activity [1] [%],residual activity [2] [%],residual activity [3] [%],residual activity [5] [%],residual activity [6] [%],residual activity [7] [%],residual activity [8] [%],residual activity [10] [%],residual activity [12] [%],residual activity [16] [%],residual activity [17] [%],other results
Cc1c(NC(=O)c2cc(C(N)=O)nc3cc(F)ccc23)c(C(F)(F)F)nn1Cc1ccc(C(C)(C)C)cc1 [BAY-588],99,100,100,100,100,100,83,74,100,100,100,inhibition [4]: 3.41%; inhibition [9]: 40.7%; inhibition [11]: 46.1%; inhibition [13]: -4.06%; inhibition [14]: -9.45%; IC50 [15]: > 10 µM (not active)
Cc1c(NC(=O)c2cc(C(N)=O)nc3cc(F)ccc23)c(C(F)(F)F)nn1Cc1ccc(C#N)cc1 [BAY-876],100,88,84,82,81,80,100,100,94,99,92,inhibition [18]: 2.31%; Ki [19]: 10 µM; inhibition [20]: -1.8%; IC50 [21]: 0.27 µM (not active); Ki [22]: 8.08 µM
